Measured values taken from patent US4560676A, “N^α -desacetylthymosinα1 and process” (The Rockefeller University, priority 1981, dated 1985).
Where no end group is shown, it is not given here.

What was measured:
[1] = tested on: spleen cells of adult thymectomized mice; experiment: rosette inhibition assay (azathioprine-sensitive rosette assay); assay type: cell-based; conditions: restoration of azathioprine sensitivity in rosette formation
Protocol: The desacetylthymosin α1 prepared and characterized above was compared with thymosin α1, prepared on both benzyhydrylamine and PAM resins in the rosette inhibition assay (azathioprine-sensitive rosette assay) as described by Dardenne and Bach in "The Biological Action of Thymic Hormones" (van Bekkum, D. K., Ed.), page 235 (Kooyker Scientific Publications, Rotterdam, 1975). In this assay the peptides are tested for ability to restore azathioprine sensitivity in rosette formation by spleen cells of adult thymectomized mice.

[2] = tested on: T-cell differentiation and function; conditions: several in vitro and in vivo assay systems; cited from earlier work

## thymosin α1 (SDAAVDTSSEITTKDLKEKKEVVEEAEN; ends and bridges not checked; UniProt P06454 2-29, looked up) [synthetic thymosin α1 prepared on benzhydrylamine and PAM resins; component of thymosin fraction 5]
[1]
  activity in rosette inhibition assay compared with each other and with natural thymosin α1: equally active
[2]
  activity relative to fraction 5: 10 to 1000 times

## SDAAVDTSSEITTKDLKEKKEVVEEAEN [desacetylthymosin α1, N^α -desacetylthymosin α1]
[1]
  activity in rosette inhibition assay compared with each other and with natural thymosin α1: equally active
